# Patent US6033669A, “Methods for generating cytotoxic T cells and treatment of diseases thereby” (priority 1992, dated 2000)
# Read-outs that look alike come from different tables or passages of the source.
# Tests used:
# [1] = tested on: RMA-S cells; assay: Membrane recycling of glycopeptide after pronase treatment; assay type: cell-based; details: pronase treated RMA-S cells, 37° C.; data not shown
# Procedure: Panel A: RMA-s cells were incubated for 24 hours at 26° C. to induce expression of empty D^b MHC-1 chains at the cell surface, and at 37° C., and stained for D^b expression. Panel B: Removal of D^b expression by pronase treatment of RMA-S cells, preincubated at 26° C. Pronase treatment for 2 h and 4 h. D^b removal is complete at 4 h. Panels C and E: 26° C. induced RMA-S cells were treated with the glycopeptides Gal2 -CSG11 (panel C) or Gal2 CAS10 (panel E), 300 μM for 2 h at 37° C., washed and stained for Gal2 expression. Panels D and F: Glycopeptide treated RMA-S cells as in panels C and E were pronase treated to remove Db and glycopeptide expression, washed and further incubated at 37° C. to allow re-expression of glycopeptides and stained for Gal2 expression.
# The capacity of the conjugate to be recycled may be assessed by incubating the cells (with bound conjugate) at 37° C. whereupon the glycopeptide will internalise. The temperature may then be lowered and the cells treated with a proteolytic enzyme (e.g. Pronase) to strip off exposed peptide/carbohydrate conjugate. On reheating, recycled conjugate may be detected by probing for the Gal2 epitope using the anti-Gal2 antibody.
# Described in FIGS. 10D and F.
# [2] = tested on: EL4 and RMA-S cells; assay type: cell-based, mice
# [3] = biological target: T1, H-2D^b (Mus musculus, UniProt P01899); assay: MHC-1 upregulation on RMA-S cells (D^b); assay type: cell-based, murine; details: RMA-S cells with peptide NP366-374 (50 μM), 6 h; FIG. 8
# T1 sequence (P01899 25-362): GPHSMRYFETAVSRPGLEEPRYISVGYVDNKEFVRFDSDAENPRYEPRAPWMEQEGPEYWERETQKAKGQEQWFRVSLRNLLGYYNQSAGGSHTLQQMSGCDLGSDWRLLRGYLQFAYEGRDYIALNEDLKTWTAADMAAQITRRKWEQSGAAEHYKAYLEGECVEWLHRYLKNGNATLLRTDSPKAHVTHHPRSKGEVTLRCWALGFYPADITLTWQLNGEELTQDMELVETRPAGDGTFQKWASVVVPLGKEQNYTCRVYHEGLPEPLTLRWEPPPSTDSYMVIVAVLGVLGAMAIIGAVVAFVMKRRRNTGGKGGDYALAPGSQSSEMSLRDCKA
# T1 sequence (P01887 21-119 partner): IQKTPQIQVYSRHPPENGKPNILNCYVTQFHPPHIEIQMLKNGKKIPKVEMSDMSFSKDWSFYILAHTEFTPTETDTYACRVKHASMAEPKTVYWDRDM
# [4] = tested on: pep 9(PR8)-coated RMA target cells; assay: Kinetics of CTL activity after one s.c. injection of peptide (51Cr release); assay type: in vivo, mice; details: primed once with 100 μg
# [5] = tested on: EL4 target cells
# [6] = 100 μg s.c., restimulated with 5 μM in vitro
# [7] = priming 1 μg, restimulation 0.05 μM, effector:target 20:1
# [8] = priming 1 μg, restimulation 0.05 μM, effector:target 40:1
# [9] = priming 1 μg, restimulation 5.00 μM, effector:target 20:1
# [10] = priming 1 μg, restimulation 5.00 μM, effector:target 40:1
# [11] = priming 10 μg, restimulation 0.05 μM, effector:target 20:1
# [12] = priming 10 μg, restimulation 0.05 μM, effector:target 40:1
# [13] = priming 10 μg, restimulation 5.00 μM, effector:target 20:1
# [14] = priming 10 μg, restimulation 5.00 μM, effector:target 40:1
# [15] = priming 100 μg, restimulation 0.05 μM, effector:target 20:1
# [16] = priming 100 μg, restimulation 0.05 μM, effector:target 40:1
# [17] = priming 100 μg, restimulation 5.00 μM, effector:target 20:1
# [18] = priming 100 μg, restimulation 5.00 μM, effector:target 40:1
compound,measurement,setting,value
CCN(CC)CCCC(C)Nc1ccnc2cc(Cl)ccc12 (stereo not shown) [chloroquine],effect on return of the Gal2 epitope to the cell surface,[1],inhibited
same,effect on return of susceptibility to CTL killing,"[2]; pronase treated peptide-coated cells incubated at 37° C., data not shown",blocked
same,effect on peptide mediated MHC-1 (H-2D^b) upregulation,[3],inhibits this upregulation
"ASNENMETM [pep 9(PR8), NP366-374 of influenza A virus strain A/PR/8/34]",CTL activity at day 30 after priming,[4],lower level of CTL activity could still be detected
same,time of peak CTL activity after the immunization,"[4]; restimulated with 5 μM, effector:target 60:1",7 days
same,CTL response against pep 9(PR8)-coated RMA and EL4 cells,[5]; [6],strong CTL response
same,killing of virus-infected target cells,[5]; [6],not killed
same,lysis of pep 9(PR8)-coated EL4 cells by CTL depleted for CD8^+ T cells,[5]; FIG. 7a,failed to lyse
same,effect of depletion of CD4^+ T cells on cytolytic activity,"[5]; FIG. 7a, pep 9(PR8)-coated target cells",did not affect the cytolytic activity
same,CTL response,[5]; immunization with 10 μg and 1 μg,less or even no CTL response
same,MHC restriction of peptide-induced cytotoxicity,"[5]; mouse, in vivo",H-2D^b restricted
same,specificity of induced CTL,"[5]; mouse, in vivo",preferentially killed their corresponding peptide-coated and virus-infected cells
same,EL4 target lysis (%) PR8-infected,[5]; [7],10.50%
same,EL4 target lysis (%) Untreated,[5]; [7],3.32%
same,EL4 target lysis (%) pep9(PR8)-coated,[5]; [7],15.54%
same,EL4 target lysis (%) PR8-infected,[5]; [8],12.43%
same,EL4 target lysis (%) Untreated,[5]; [8],4.08%
same,EL4 target lysis (%) pep9(PR8)-coated,[5]; [8],16.44%
same,EL4 target lysis (%) PR8-infected,[5]; [9],5.54%
same,EL4 target lysis (%) Untreated,[5]; [9],2.66%
same,EL4 target lysis (%) pep9(PR8)-coated,[5]; [9],9.28%
same,EL4 target lysis (%) PR8-infected,[5]; [10],6.88%
same,EL4 target lysis (%) Untreated,[5]; [10],3.34%
same,EL4 target lysis (%) pep9(PR8)-coated,[5]; [10],11.85%
same,EL4 target lysis (%) PR8-infected,[5]; [11],23.75%
same,EL4 target lysis (%) Untreated,[5]; [11],4.14%
same,EL4 target lysis (%) pep9(PR8)-coated,[5]; [11],34.60%
same,EL4 target lysis (%) PR8-infected,[5]; [12],31.19%
same,EL4 target lysis (%) Untreated,[5]; [12],5.74%
same,EL4 target lysis (%) pep9(PR8)-coated,[5]; [12],45.52%
same,EL4 target lysis (%) PR8-infected,[5]; [13],13.98%
same,EL4 target lysis (%) Untreated,[5]; [13],4.19%
same,EL4 target lysis (%) pep9(PR8)-coated,[5]; [13],22.09%
same,EL4 target lysis (%) PR8-infected,[5]; [14],15.04%
same,EL4 target lysis (%) Untreated,[5]; [14],5.63%
same,EL4 target lysis (%) pep9(PR8)-coated,[5]; [14],23.54%
same,EL4 target lysis (%) PR8-infected,[5]; [15],30.07%
same,EL4 target lysis (%) Untreated,[5]; [15],0.51%
same,EL4 target lysis (%) pep9(PR8)-coated,[5]; [15],50.73%
same,EL4 target lysis (%) PR8-infected,[5]; [16],30.76%
same,EL4 target lysis (%) Untreated,[5]; [16],0.12%
same,EL4 target lysis (%) pep9(PR8)-coated,[5]; [16],59.42%
same,EL4 target lysis (%) PR8-infected,[5]; [17],8.50%
same,EL4 target lysis (%) Untreated,[5]; [17],4.21%
same,EL4 target lysis (%) pep9(PR8)-coated,[5]; [17],34.73%
same,EL4 target lysis (%) PR8-infected,[5]; [18],7.00%
same,EL4 target lysis (%) Untreated,[5]; [18],4.61%
same,EL4 target lysis (%) pep9(PR8)-coated,[5]; [18],43.68%
same,killing of peptide treated RMA-S and EL-4 target cells by influenza A (PR8) specific CTL,[2]; FIG. 11,strongly killed
